The text below walks through data of US7812017B2, “4-substituted indole and indoline compounds” (Biovitrum AB (publ.), priority 2006, dated 2010).

Counter-ions that a name gives are not always drawn.

Assay [1] concerns the target T1, human 5-HT6 receptor (Homo sapiens, UniProt P50406). Briefly: biochemical.
The target in assay [2] is T1, human 5-HT6 receptor. Kind of assay: 5-HT6 receptor binding assay ([3H]-LSD, SPA, membranes of transfected HEK293 cells). The conditions noted are these: over three experiments.

T1 sequence (P50406 whole entry): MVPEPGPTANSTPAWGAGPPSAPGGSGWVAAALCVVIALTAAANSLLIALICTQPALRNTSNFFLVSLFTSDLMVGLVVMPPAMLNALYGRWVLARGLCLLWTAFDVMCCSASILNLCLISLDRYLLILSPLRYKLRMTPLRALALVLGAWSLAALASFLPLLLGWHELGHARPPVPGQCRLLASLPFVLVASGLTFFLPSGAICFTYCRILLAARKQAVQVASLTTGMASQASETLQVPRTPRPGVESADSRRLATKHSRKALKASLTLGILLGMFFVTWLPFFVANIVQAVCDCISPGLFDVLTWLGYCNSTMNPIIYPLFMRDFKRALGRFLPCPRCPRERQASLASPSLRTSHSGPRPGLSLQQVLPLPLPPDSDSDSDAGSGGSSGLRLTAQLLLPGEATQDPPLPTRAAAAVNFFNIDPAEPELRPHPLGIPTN

A word on the Ki: it is the dissociation constant of the complex between target and ligand, obtained from inhibition or displacement. A low value points to tighter binding. With `O=S(=O)(c1ccccc1)n1ccc2c(CN3CCNCC3)cccc21` [Example 1, 1-(Phenylsulfonyl)-4-(piperazin-1-ylmethyl)-1H-indole hydrochloride], in assay [1], the affinity corresponds to a Ki of 1.8 nM.
As to `NCCc1c[nH]c2ccc(O)cc12` [Example 5-HT, 5-hydroxytryptamine], in assay [2], the Hill coefficient was 0.94 (SD 0.09).
Regarding `CN(C)Cc1cccc2c1ccn2S(=O)(=O)c1ccccc1` [Example 47, N,N-Dimethyl-1-[1-(phenylsulfonyl)-1H-indol-4-yl]methanamine trifluoroacetate], in assay [1], the Ki is 3.3 nM.
`O=S(=O)(c1ccccc1)n1ccc2c(CN3CCC3)cccc21` [Example 87, 4-Azetidin-1-ylmethyl)-1-(phenylsulfonyl)-1H-indole trifluoroacetate] displayed a Ki in assay [1] of 0.9 nM.
